In patent US12145944B2, “Imidazopyrimidines as EED inhibitors and the use thereof” (THE REGENTS OF THE UNIVERSITY OF MICHIGAN, priority 2019, dated 2024):
Read-outs that look alike come from different tables or passages of the source.

Assays:
EED (1-441)-His protein = target: T1, EED (1-441)-His protein (Homo sapiens, UniProt O75530); experiment: EED-H3K27Me3 peptide competition binding assay by AlphaScreen
T1 construct: 20 nM EED (1-441)-His protein
Description: “N/A” stands for “not assessed”.
EED-H3K27Me3 peptide competition binding assay by AlphaScreen (α-screen)
2.5 μl of solutions containing 20 nM biotin-H3K27Me3 (19-33) peptide in the buffer (25 mM HEPES, pH 8, 0.02% Tween-20, 0.5% BSA) were added to the wells and then incubated with compound for 30 min. […] Then 10 μl of the detection beads mix was added to the plate and incubated in the dark at RT for 1 h. The final concentration of donor and acceptor beads was 10 μg/ml for each. […] The data were then fit to a dose response equation to get the IC50 values.

[1] = test system: KARPAS422 human B cell lymphoma cell; experiment: Cell proliferation, KARPAS422, 7 day treatment (WST-8); format: cell-based
Outline: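 Read-out was WST-8 absorbance at 450 nm after 1-4 h with reagent, taken after 7-day compound treatment (serial dilutions, 37 °C, 5% CO2) of 2 000-3 000 KARPAS422 cells per well. IC50 fitted by nonlinear regression on DMSO-normalized values.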

Pfeiffer cell line = experiment: Anti-proliferative activity, Pfeiffer cell line, 7 day treatment; format: cell-based; conditions: Homo sapiens, 168 h
Outline: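 Cells seeded at 2 000-3 000 per well were treated with serially diluted compounds for 7 days at 37° C, 5% CO2. Growth was measured by WST-8 assay read at 450 nm after 1-4 h reagent incubation. Readings were normalized to DMSO-treated cells and IC50 values derived by nonlinear regression.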

[2] = EED Alpha screen binding assay, read-out: Alpha screen
[3] = anti-proliferative IC50, Karpas 422 cell line, 7 day treatment, read-out: Karpas Cell line
[4] = Homo sapiens, KARPAS-422, 168 h, anti-proliferative IC50, Karpas 422 cell line, 7 day treatment, read-out: Karpas Cell line
[5] = anti-proliferative IC50, Pfeiffer cell line, 7 day treatment, read-out: Pfeiffer Cell line
[6] = Homo sapiens, KARPAS-422, 168 h, read-out: Karpas Cell line (nM)
[7] = Pfeiffer, read-out: Pfeiffer Cell line (nM)

T1 sequence (O75530 whole entry): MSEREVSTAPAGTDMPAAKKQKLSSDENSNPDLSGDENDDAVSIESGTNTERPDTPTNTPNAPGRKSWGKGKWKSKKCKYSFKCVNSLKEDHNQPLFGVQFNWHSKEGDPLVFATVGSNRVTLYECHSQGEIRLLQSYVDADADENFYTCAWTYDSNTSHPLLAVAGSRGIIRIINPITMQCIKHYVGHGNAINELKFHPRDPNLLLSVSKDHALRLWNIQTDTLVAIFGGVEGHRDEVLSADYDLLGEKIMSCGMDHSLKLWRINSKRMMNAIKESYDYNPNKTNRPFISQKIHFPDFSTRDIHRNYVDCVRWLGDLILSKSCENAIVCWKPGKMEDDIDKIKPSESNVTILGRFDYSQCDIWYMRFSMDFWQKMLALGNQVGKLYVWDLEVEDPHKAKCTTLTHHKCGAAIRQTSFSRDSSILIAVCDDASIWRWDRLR

Compound	IC50 (EED (1-441)-His protein; [2])	IC50 [1, 4]	IC50 [1, 6]	also measured
4-(2,2-difluoroethyl)-7-fluoro-12-(((5-fluoro-2,3- dihydrobenzofuran-4-yl)methyl)amino)-4,5-dihydro- 3H-2,4,11,12a-tetraazabenzo[4,5]cycloocta[1,2,3- cd]inden-3-one [compound 80]	1.61 nM			IC50 [1, 3]: 2.42 nM
4-(2,2-difluoropropyl)-7-fluoro-12-(((5-fluoro-2,3- dihydrobenzofuran-4-yl)methyl)amino)-4,5-dihydro- 3H-2,4,11,12a-tetraazabenzo[4,5]cycloocta[1,2,3- cd]inden-3-one [compound 76]	0.97 nM			IC50 [1, 3]: 14.5 nM
7-fluoro-12-(((5-fluoro-2,3-dihydrobenzofuran-4- yl)methyl)amino)-4-(1-methylpiperidin-4-yl)-4,5- dihydro-3H-2,4,11,12a- tetraazabenzo[4,5]cycloocta[1,2,3-cd]inden-3-one [compound 75]	1.72 nM			IC50 [1, 3]: 11.1 nM
7-fluoro-12-(((5-fluoro-2,3-dihydrobenzofuran-4- yl)methyl)amino)-4-(2-fluoro-2-methylpropyl)-4,5- dihydro-3H-2,4,11,12a- tetraazabenzo[4,5]cycloocta[1,2,3-cd]inden-3-one [compound 78]	3.23 nM			IC50 [1, 3]: 34.5 nM
7-fluoro-12-(((5-fluoro-2,3-dihydrobenzofuran-4- yl)methyl)amino)-4-(2-fluoroethyl)-4,5-dihydro-3H- 2,4,11,12a-tetraazabenzo[4,5]cycloocta[1,2,3- cd]inden-3-one [compound 79]	1.61 nM			IC50 [1, 3]: 15.3 nM
CC1CC(N2Cc3cc(C(F)(F)F)ccc3-c3cnc(NCc4c(F)ccc5c4CCO5)n4cnc(c34)C2=O)CC(C)O1 (centres unmarked) [compound 93, 4-(2,6-dimethyltetrahydro-2H-pyran-4-yl)-12-(((5-fluoro-2,3-dihydrobenzofuran-4-yl)methyl)amino)-7-(trifluoromethyl)-4,5-dihydro-3H-2,4,11,12a-tetraazabenzo [4,5]cycloocta[1,2,3-cd]inden-3-one]		3.71 nM		IC50 (Pfeiffer cell line; [5]): 0.55 nM
O=S1(=O)Cc2ncccc2-c2cnc(NCc3c(F)ccc4c3CCO4)n3cnc1c23 [compound 94, 11-(((5-fluoro-2,3-dihydrobenzofuran-4-yl)methyl)amino)-4H-3-thia-2,5,10,11a-tetraazadibenzo[cd,f]azulene 3,3-dioxide]		13.9 nM		IC50 (Pfeiffer cell line; [5]): 0.2 nM
O=S1(=O)CCc2cc(F)ccc2-c2cnc(NCc3c(F)ccc4c3CCO4)n3cnc1c23 [compound 96, 7-fluoro-12-(((5-fluoro-2,3-dihydrobenzofuran-4-yl)methyl)amino)-4,5-dihydro-3-thia-2,11,12a-triazabenzo[4,5]cycloocta[1,2,3-cd]indene 3,3-dioxide]		21.2 nM		IC50 (Pfeiffer cell line; [5]): 0.056 nM
Cc1ccc2c(n1)CCS(=O)(=O)c1ncn3c(NCc4c(F)ccc5c4CCO5)ncc-2c13 [compound 97, 12-(((5-fluoro-2,3-dihydrobenzofuran-4-yl)methyl)amino)-7-methyl-4,5-dihydro-3-thia-2,6,11,12a-tetraazabenzo[4,5]cycloocta[1,2,3-cd]indene 3,3-dioxide]		1.85 nM		IC50 (Pfeiffer cell line; [5]): 0.058 nM
CS(=O)(=O)c1ccc(-c2cnc(NCc3c(F)ccc4c3CCO4)n3cnc(S(C)(=O)=O)c23)cc1 [compound 100, N-((5-fluoro-2,3-dihydrobenzofuran-4-yl)methyl)-1-(methylsulfonyl)-8-(4 (methylsulfonyl)phenyl)imidazo[1,5-c]pyrimidin-5-amine]			0.26 nM	IC50 (Pfeiffer cell line; [7]): 1.05 nM
Cc1ncccc1-c1cnc(NCc2c(F)ccc3c2CCO3)n2cnc(S(C)(=O)=O)c12 [compound 101, N-((5-fluoro-2,3-dihydrobenzofuran-4-yl)methyl)-8-(2-methylpyridin-3-yl)-1-(methylsulfonyl)imidazo[1,5-c]pyrimidin-5-amine]			5.59 nM	IC50 (Pfeiffer cell line; [7]): 1.76 nM
CS(=O)(=O)c1ncn2c(NCc3c(F)ccc4c3CCO4)ncc(-c3ccc(F)cc3)c12 [compound 104, N-((5-fluoro-2,3-dihydrobenzofuran-4-yl)methyl)-8-(4-fluorophenyl)-1 (methylsulfonyl)imidazo[1,5-c]pyrimidin-5-amine]	0.59 nM		8.1 nM	
Cn1cc(-c2cnc(NCc3c(F)ccc4c3CCO4)n3cnc(S(C)(=O)=O)c23)cn1 [compound 106, N-((5-fluoro-2,3-dihydrobenzofuran-4-yl)methyl)-8-(1-methyl-1H-pyrazol-4-yl)-1-(methylsulfonyl)imidazo[1,5-c]pyrimidin-5-amine]	0.556 nM		10.6 nM	
CS(=O)(=O)c1ncn2c(NCc3c(F)ccc4c3CCO4)ncc(-c3ccc(C(F)F)nc3)c12 [compound 107, 8-(6-(difluoromethyl)pyridin-3-yl)-N-((5-fluoro-2,3-dihydrobenzofuran-4-yl)methyl)-1-(methylsulfonyl)imidazo[1,5-c]pyrimidin-5-amine]			2.84 nM	IC50 (EED (1-441)-His protein): 0.215 nM
Cc1ccc(-c2cnc(NCc3c(F)ccc4c3CCO4)n3cnc(S(C)(=O)=O)c23)c(C)n1 [compound 108, 8-(2,6-dimethylpyridin-3-yl)-N-((5-fluoro-2,3-dihydrobenzofuran-4-yl)methyl)-1-(methylsulfonyl)imidazo[1,5-c]pyrimidin-5-amine]	0.421 nM		6.89 nM	
Cc1nc(C(F)(F)F)ccc1-c1cnc(NCc2c(F)ccc3c2CCO3)n2cnc(S(C)(=O)=O)c12 [compound 109, N-((5-fluoro-2,3-dihydrobenzofuran-4-yl)methyl)-8-(2-methyl-6-(trifluoromethyl)pyridin-3-yl)-1-(methylsulfonyl)imidazo[1,5-c]pyrimidin-5-amine]	0.53 nM		10.9 nM	
Cc1cc(S(C)(=O)=O)ccc1-c1cnc(NCc2c(F)ccc3c2CCO3)n2cnc(S(C)(=O)=O)c12 [compound 110, N-((5-fluoro-2,3-dihydrobenzofuran-4-yl)methyl)-8-(2-methyl-4-(methylsulfonyl)phenyl)-1-(methylsulfonyl)imidazo[1,5-c]pyrimidin-5-amine]	0.47 nM		3.93 nM	
CS(=O)(=O)c1ncn2c(NCc3c(F)ccc4c3CCO4)ncc(-c3ccc(C4CC4)nc3)c12 [compound 111, 8-(6-cyclopropylpyridin-3-yl)-N-((5-fluoro-2,3-dihydrobenzofuran-4-yl)methyl)-1-(methylsulfonyl)imidazo[1,5-c]pyrimidin-5-amine]	0.34 nM		1.42 nM	
CS(=O)(=O)c1ccc(-c2cnc(NCc3c(F)ccc4c3CCO4)n3cnc(C(F)(F)F)c23)cc1 [compound 112, N-((5-fluoro-2,3-dihydrobenzofuran-4-yl)methyl)-8-(4-(methylsulfonyl)phenyl)-1-(trifluoromethyl)imidazo[1,5-c]pyrimidin-5-amine]	0.83 nM	20.3 nM		
Fc1ccc2c(c1CNc1ncc(-c3ccc(C(F)(F)F)cc3)c3c(C(F)(F)F)ncn13)CCO2 [compound 113, N-((5-fluoro-2,3-dihydrobenzofuran-4-yl)methyl)-1-(trifluoromethyl)-8-(4-(trifluoromethyl)phenyl)imidazo[1,5-c]pyrimidin-5-amine]	0.98 nM	> 100 nM		
Fc1ccc(-c2cnc(NCc3c(F)ccc4c3CCO4)n3cnc(C(F)(F)F)c23)cc1 [compound 114, N-((5-fluoro-2,3-dihydrobenzofuran-4-yl)methyl)-8-(4-fluorophenyl)-1-(trifluoromethyl)imidazo[1,5-c]pyrimidin-5-amine]	1.48 nM	> 100 nM		
Cc1ccc(-c2cnc(NCc3c(F)ccc4c3CCO4)n3cnc(C(F)(F)F)c23)c(C)n1 [compound 115, 8-(2,6-dimethylpyridin-3-yl)-N-((5-fluoro-2,3-dihydrobenzofuran-4-yl)methyl)-1-(trifluoromethyl)imidazo[1,5-c]pyrimidin-5-amine]	2.35 nM	50.1 nM		
Fc1ccc2c(c1CNc1ncc(-c3ccc(C(F)(F)F)nc3)c3c(C(F)(F)F)ncn13)CCO2 [compound 116, N-((5-fluoro-2,3-dihydrobenzofuran-4-yl)methyl)-1-(trifluoromethyl)-8-(6-(trifluoromethyl)pyridin-3-yl)imidazo[1,5-c]pyrimidin-5-amine]	1.98 nM	> 100 nM		
CP(C)(=O)c1ncn2c(NCc3c(F)ccc4c3CCO4)ncc(-c3ccc(C(F)F)nc3)c12 [compound 117, (8-(6-(difluoromethyl)pyridin-3-yl)-5-(((5-fluoro-2,3-dihydrobenzofuran-4-yl)methyl)amino)imidazo[1,5-c]pyrimidin-1-yl)dimethylphosphine oxide]	0.19 nM	19.5 nM		
CP(C)(=O)c1ncn2c(NCc3c(F)ccc4c3CCO4)ncc(-c3ccc(F)cc3)c12 [compound 118, (5-(((5-fluoro-2,3-dihydrobenzofuran-4-yl)methyl)amino)-8-(4-fluorophenyl)imidazo[1,5-c]pyrimidin-1-yl)dimethylphosphine oxide]	0.27 nM	28.4 nM		
